Experiment [1] addresses human recombinant PDGFR beta (Homo sapiens, UniProt P09619). The experiment can be described thus: IC50 determination for inhibitors of PDGFR kinase (IMAP fluorescence polarization). To be noted: 48 uM ATP, room temperature, 60 minutes, read-out: IC50 PDGFR kinase inhibition. In kind it is biochemical. As for the experimental part:
PDGFR assay was carried out with human recombinant PDGFR beta, fluorescein labeled peptide substrate (with a peptide sequence of ALTSNQEYLDLSMPL) and test compounds (in serial dilution) using 384-well plates. Kinase reaction was performed in MOPS buffer (20 mM MOPS pH 7.1, 5 mM Sodium Acetate, 6.25 mM MgCl2, 0.5 mM EDTA, 1 mM DTT, 0.04 mM NaVO4, 0.02% BSA), in the presence of 48 uM ATP, incubated at room temperature for 60 minutes. Reaction was stopped by IMAP Bead Binding System (Molecular Devices). After incubation at room temperature for 2 hours, the reaction product was analyzed on LJL Acquest.
(§1) FP reading (in mP) was used to calculate reaction rate. The assay was semi-automated by Tomtec Quadra workstation.
(In general: In fluorescence polarisation assays a small probe gives low polarisation when free and higher when bound to something large.)

The next experiment has as its system HCT 116 cells. The experiment can be described thus: CellTiter-Glo assay in HCT 116 cells (antiproliferative activity). In kind it is cell-based. Conditions: Homo sapiens, HCT-116, 120 h, cell viability after 5 days. As for the experimental part:
The CellTiter-Glo™ Luminescent Cell Viability Assay (Promega) is a homogeneous method of determining the number of viable cells in culture based on quantitation of the ATP present, which signals the presence of metabolically active cells.
HCT 116 cells (human colon carcinoma, ATCC-No. CCl-247) were cultivated in RPMI 1640 medium with GlutaMAX™ 1 (Invitrogen, Cat-No. 61870-010), 5% Fetal Calf Serum (FCS, Sigma Cat-No. F4135 (FBS)); 100 Units/ml penicillin/100 μg/ml streptomycin (=Pen/Strep from Invitrogen Cat. No. 15140). For the assay the cells were seeded in 384 well plates, 1000 cells per well, in the same medium. The next day the test compounds were added in various concentrations ranging from 30 μM to 0.0015 μM (10 concentrations, 1:3 diluted). After 5 days the CellTiter-Glo™ assay was done according to the instructions of the manufacturer (CellTiter-Glo™ Luminescent Cell Viability Assay, from Promega). In brief: the cell-plate was equilibrated to room temperature for approximately 30 minutes and than the CellTiter-Glo™ reagent was added. The contents were carefully mixed for 15 minutes to induce cell lysis. After 45 minutes the luminescent signal was measured in Victor 2, (scanning multiwell spectrophotometer, Wallac).
• Medium: RPMI 1640 with GlutaMAX™ 1 (Invitrogen, Cat-No. 61870), 5% FCS (Sigma Cat.-No. F4135), Pen/Strep (Invitrogen, Cat No. 15140). • HCT116 (ATCC-No. CCl-247): 1000 cells in 60 μl per well of 384 well plate (Greiner 781098, μClear-plate white) • After seeding incubate plates 24 h at 37° C., 5% CO2 2nd. Day: Induction (Treatment with Compounds, 10 Concentrations):
In order to achieve a final concentration of 30 μM as highest concentration 3.5 μl of 10 mM compound stock solution were added directly to 163 μl media. Then step e) of the dilution procedure described below, was followed.

Experiment [2] concerns the target T1, fusion protein corresponding to mouse Abl (27-end) (Mus musculus, UniProt P00520).
T1 construct: fusion protein corresponding to mouse Abl (27-end)
The experiment can be described thus: IC50 determination for inhibitors of Abl kinase (IMAP fluorescence polarization). In kind it is biochemical. To be noted: 22.8 uM ATP, 37° C., 60 minutes; read-out: IC50 Abl kinase inhibition. As for the experimental part: Abl assay was done using fusion protein corresponding to mouse Abl (27-end), fluorescein labeled peptide substrate (with a sequence of EAIYAAPFAKKK) and quantified by Molecular Devices' IMAP fluorescence polarization technology. Compounds were tested in serially diluted concentrations in 384 well plates. Kinase reaction was performed in KAB Buffer (10 mM HEPES, pH 7, 50 mM NaCl, 5 mM MgCl2, 1 mM DTT, 0.1 mM NaVO4, 0.02% BSA), in the presence of 22.8 uM ATP, incubated at 37° C. for 60 minutes. Reaction was stopped by IMAP bead mix (at 1:400 diluted). After incubation at room temperature for 3 hours, the reaction product was analyzed on LJL Acquest (excitation 485 nm and Emission 530 nm).
FP reading (in mP) was used to calculate reaction rate. The assay was semi automated by Tomtec Quadra workstation.

In experiment [3] the target is T2, mouse full-length Src protein (Mus musculus, UniProt P05480).
T2 construct: mouse full-length Src protein
T2 sequence (P05480 whole entry): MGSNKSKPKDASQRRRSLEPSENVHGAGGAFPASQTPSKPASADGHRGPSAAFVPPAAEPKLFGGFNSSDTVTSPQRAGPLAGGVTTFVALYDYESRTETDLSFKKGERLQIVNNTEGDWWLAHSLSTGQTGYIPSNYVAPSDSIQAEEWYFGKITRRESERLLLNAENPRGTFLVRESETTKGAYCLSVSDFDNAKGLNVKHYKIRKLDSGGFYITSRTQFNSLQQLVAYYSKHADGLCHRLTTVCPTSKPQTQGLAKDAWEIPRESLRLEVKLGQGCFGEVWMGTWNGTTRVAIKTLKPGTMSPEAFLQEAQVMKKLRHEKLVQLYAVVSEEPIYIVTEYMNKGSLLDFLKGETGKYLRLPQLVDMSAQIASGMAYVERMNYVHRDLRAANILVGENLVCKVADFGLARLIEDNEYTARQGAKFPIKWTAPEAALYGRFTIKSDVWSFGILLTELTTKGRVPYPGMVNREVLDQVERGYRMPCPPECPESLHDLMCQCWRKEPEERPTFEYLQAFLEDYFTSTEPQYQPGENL
The experiment can be described thus: IC50 determination for inhibitors of Src kinase (IMAP fluorescence polarization). To be noted: 24 uM ATP, 37° C., 60 minutes; read-out: IC50 Src kinase inhibition. In kind it is biochemical. As for the experimental part:
Src assay was done using mouse full-length Src protein, fluorescein labeled peptide substrate (with a sequence of KVEKIGEGTYGVVYK) and quantified by Molecular Devices' IMAP fluorescence polarization technology. Compounds were tested in serially diluted concentrations in 384 well plates. Kinase reaction was performed in KAB Buffer (10 mM HEPES, pH 7, 50 mM NaCl, 5 mM MgCl2, 1 mM DTT, 0.1 mM NaVO4, 0.02% BSA), in the presence of 24 uM ATP, incubated at 37° C. for 60 minutes. Reaction was stopped by IMAP bead mix (at 1:400 dilution). After incubation at room temperature for 2 hours, the reaction product was analyzed on LJL Acquest (excitation 485 nm and Emission 530 nm).
as §1

Each structure is given as a SMILES string.

From patent publication US8067599B2 (Hoffman-La Roche Inc., priority 2006, dated 2011) come the findings set out here.

T1 sequence (P00520 27-1123 limits assumed): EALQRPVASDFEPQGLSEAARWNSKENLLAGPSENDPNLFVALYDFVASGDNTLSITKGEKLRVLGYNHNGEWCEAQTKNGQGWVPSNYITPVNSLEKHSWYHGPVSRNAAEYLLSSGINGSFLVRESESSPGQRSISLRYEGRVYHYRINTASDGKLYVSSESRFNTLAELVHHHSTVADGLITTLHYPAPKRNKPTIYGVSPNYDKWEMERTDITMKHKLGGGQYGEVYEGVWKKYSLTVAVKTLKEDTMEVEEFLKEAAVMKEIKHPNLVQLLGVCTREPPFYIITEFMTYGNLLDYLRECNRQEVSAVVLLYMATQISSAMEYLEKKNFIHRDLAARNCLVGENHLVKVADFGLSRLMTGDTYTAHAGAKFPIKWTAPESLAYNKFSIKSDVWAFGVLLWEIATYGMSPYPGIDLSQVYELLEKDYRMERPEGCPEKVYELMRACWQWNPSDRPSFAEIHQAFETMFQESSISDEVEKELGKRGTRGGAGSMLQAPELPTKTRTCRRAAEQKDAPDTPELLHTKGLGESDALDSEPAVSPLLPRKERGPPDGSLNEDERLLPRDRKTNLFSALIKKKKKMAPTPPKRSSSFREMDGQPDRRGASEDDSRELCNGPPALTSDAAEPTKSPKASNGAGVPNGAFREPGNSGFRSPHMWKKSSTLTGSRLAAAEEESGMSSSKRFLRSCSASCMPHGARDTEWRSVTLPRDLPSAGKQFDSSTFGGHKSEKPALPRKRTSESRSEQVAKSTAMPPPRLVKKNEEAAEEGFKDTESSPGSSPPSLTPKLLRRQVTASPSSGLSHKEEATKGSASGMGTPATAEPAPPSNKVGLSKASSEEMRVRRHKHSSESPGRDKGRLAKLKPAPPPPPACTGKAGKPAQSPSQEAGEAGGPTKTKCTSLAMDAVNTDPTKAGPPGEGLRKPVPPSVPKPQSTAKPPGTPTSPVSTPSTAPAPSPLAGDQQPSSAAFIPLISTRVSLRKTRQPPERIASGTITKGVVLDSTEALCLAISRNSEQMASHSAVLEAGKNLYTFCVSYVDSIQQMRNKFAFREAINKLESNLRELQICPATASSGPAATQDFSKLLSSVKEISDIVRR
human recombinant PDGFR beta, sequence (P09619 33-1106): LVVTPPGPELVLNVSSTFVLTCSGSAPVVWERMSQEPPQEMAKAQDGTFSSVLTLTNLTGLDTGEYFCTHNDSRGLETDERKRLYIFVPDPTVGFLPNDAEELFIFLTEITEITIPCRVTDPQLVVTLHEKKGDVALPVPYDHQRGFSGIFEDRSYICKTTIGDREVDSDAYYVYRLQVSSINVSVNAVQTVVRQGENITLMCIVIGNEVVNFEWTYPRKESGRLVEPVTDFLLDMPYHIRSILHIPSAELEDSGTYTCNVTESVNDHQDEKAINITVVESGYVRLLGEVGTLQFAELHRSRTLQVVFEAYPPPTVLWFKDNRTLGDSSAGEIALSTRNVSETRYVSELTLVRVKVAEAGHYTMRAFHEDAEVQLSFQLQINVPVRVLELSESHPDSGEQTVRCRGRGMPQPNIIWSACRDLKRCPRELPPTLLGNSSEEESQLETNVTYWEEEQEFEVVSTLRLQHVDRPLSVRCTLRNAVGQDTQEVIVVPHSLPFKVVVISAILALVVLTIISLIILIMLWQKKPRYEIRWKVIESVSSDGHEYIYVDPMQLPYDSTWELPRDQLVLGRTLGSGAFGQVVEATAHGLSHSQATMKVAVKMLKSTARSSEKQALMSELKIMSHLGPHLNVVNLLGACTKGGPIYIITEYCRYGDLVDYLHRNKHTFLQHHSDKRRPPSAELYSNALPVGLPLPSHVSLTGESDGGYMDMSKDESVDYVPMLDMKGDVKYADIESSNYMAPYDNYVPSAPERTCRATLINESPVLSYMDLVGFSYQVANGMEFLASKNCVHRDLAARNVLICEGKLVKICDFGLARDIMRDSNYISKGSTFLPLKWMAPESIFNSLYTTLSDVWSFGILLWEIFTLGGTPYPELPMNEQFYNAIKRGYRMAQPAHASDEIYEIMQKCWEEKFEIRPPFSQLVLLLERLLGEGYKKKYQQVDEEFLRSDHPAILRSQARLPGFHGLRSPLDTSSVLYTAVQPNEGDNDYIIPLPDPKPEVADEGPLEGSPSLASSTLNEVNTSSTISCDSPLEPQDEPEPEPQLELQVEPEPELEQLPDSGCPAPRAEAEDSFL

On to `O=C(Nc1ccc(Cl)c(C(=O)Nc2cnc3[nH]ccc3c2)c1)c1ccc(-c2ccccc2)cc1` [Example 2-2, Biphenyl-4-carboxylic acid [4-chloro-3-(1H-pyrrolo[2,3-b]pyridin-5-ylcarbamoyl)-phenyl]-amide], for which the IC50 (commonly the concentration that inhibits the measured activity by half) in experiment [1] was 10 to 1000 nM; in the experiment on HCT 116 cells it was 100 to 10000 nM; in experiment [2], 63 nM; in experiment [3], 5 to 1000 nM.
The corresponding values for `CN(C)CCOc1cccc(-c2ccc(C(=O)Nc3ccc(Cl)c(C(=O)Nc4cnc5[nH]ccc5c4)c3)cc2)c1` [Example 1-1] are 10 to 1000 nM, 1810 nM, 5 to 1000 nM and 5 to 1000 nM.
Regarding `O=C(Nc1ccc(Cl)c(C(=O)Nc2cnc3[nH]ccc3c2)c1)c1cccc(-c2ccccc2)c1` [Example 2-1, Biphenyl-3-carboxylic acid[4-chloro-3-(1H-pyrrolo[2,3-b]pyridin-5-ylcarbamoyl)-phenyl]-amide], the IC50 in experiment [1] is 14 nM; in the experiment on HCT 116 cells it was 100 to 10000 nM; in experiment [2] it was 5 to 1000 nM; in experiment [3], 5 to 1000 nM.
